Like-named read-outs stand apart in the source and are kept apart here.

A word on the Kd: it is a measure of binding affinity in units of concentration.

Test [1] concerns the target T1, angiotensin-converting enzyme 2 (ACE2) (Homo sapiens, UniProt Q9BYF1). Briefly: SPR. It counts as binding.
The target of test [2] is T1, angiotensin-converting enzyme 2 (ACE2). In words: SPR. It counts as binding. This is another data set of the same source.

T1 sequence (Q9BYF1 18-805): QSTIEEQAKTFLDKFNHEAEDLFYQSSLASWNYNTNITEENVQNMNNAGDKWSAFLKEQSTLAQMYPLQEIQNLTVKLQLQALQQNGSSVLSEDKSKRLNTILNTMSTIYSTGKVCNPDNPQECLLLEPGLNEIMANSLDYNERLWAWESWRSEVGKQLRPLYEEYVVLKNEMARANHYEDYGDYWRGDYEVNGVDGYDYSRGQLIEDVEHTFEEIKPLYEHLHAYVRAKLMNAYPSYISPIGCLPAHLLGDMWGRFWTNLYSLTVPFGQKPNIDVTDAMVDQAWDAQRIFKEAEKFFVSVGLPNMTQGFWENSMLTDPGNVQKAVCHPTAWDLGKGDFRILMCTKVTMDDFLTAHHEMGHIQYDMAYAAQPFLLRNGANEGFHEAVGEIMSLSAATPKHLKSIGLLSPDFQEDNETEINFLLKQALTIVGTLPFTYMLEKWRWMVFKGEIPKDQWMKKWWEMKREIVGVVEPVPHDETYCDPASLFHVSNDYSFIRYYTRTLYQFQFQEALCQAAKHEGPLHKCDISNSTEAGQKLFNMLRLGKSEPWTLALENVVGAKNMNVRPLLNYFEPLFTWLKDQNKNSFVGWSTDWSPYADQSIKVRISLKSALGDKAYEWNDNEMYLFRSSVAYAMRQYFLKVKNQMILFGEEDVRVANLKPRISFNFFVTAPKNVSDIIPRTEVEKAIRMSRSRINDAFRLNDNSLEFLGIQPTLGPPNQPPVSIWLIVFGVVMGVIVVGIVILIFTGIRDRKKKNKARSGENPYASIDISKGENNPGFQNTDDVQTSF

For the compound `CC(C)C[C@H](N[C@@H](Cc1cncn1Cc1cc(Cl)cc(Cl)c1)C(=O)O)C(=O)O` [MLN-4760], in test [1], binding was characterised by a dissociation constant (Kd) of 66 µM.

As to `CC1=CC(=O)C(C(C)C)=CC1=O` [thymoquinone], the Kd in test [2] amounted to 32.1 µM.

Source of the values: paper PMC7853165 (Infectious Diseases and Therapy, 2021).
